Test system: tyrosinase from mushroom
Assay: Inhibition of mushroom tyrosinase (tyrosine substrate, absorbance at 475 nm after 24 hours)
Format: biochemical
Experimental: A buffer solution A containing 50 mM sodium acetate was prepared to yield a 6.8 pH. A tryosine solution was prepared by adding 15 mg of tyrosine to 100 ml of buffer solution A. A tyrosinase solution was prepared by adding 11.5 mg tyrosinase from mushroom (Serva Art. 37618, 72 μ/mg) in 1.2 ml. of buffer solution A. A test tube was charged with 2.7 ml of buffer solution A and 0.4 ml. water to define a blank. Similarly, another test tube was charged with 2.7 ml. of the tyrosine solution, 0.3 ml of water, and 0.1 ml of the tyrosinase solution to define a reference. The samples were stored for 24 hours at a temperature between 23° C. and 25° C. The absorbency of the reference was measured at 475 nm with a spectrophotometer and the absorbancy was set to zero. […] A test tube was charged with 2.7 ml of the tyrosine solution, 0.1 ml. of the tyrosinase solution and 1% mercaptodextran having a molecular weight of about 10,000 from Pharmacia Biotech. The sample was stored for 24 hours at a temperature between 23° C. and 25° C. The absorbancy of was measured at 24 hours. The percent inhibition of the tyrosinase of was calculated as follows: [formula]

[1] = Example 1 / Table 1, whitener 1.0 wt %, 24 hours at 23-25° C., pH 6.8

Percent inhibition (24 hours) [1] [%]	Percent inhibition (24 hours) (Example 2 / Table 2, whitening agent 1.0 wt %, 24 hours) [%]	SMILES
0.0		O=c1oc2cc(O)ccc2s1 [Tioxolone]
87.8	90.9	O=c1cc(CO)occ1O [Kojic Acid]
